Source: patent US4221919A, “Antiinflammatory substituted phenylacetic acids” (SPOFA, United Pharmaceutical Works, priority 1974, dated 1980)
Where two headings read alike, the source gives them in different places.

Legend:
[1] = orientative test for oral acute toxicity in female mice; details: mouse, in vivo
Method: (§1) As experimental models of inflammation, serving for testing the antiinflammatory activity, there were used the method of kaolin-induced edema of rat hind limb (Hillebrecht J.: Arzneim-Forsch. 9, p. 625, 1959). Kaolin edema of rat hind limb was induced by subplantar injection of 10% kaolin suspension dosed 0.1 ml per animal. The substances tested were administered once, one hour before the injection of kaolin, by gavage with the aid of a metallic gastric sound in the form of aqueous suspension with gum acacia added, in volumes of 1 ml/100 g body weight, equivalent to doses of 25 and 100 mg/kg. The edema of the right hind limb was measured volumetrically on a Volumometer Ugo Basile at hours 1; 1.5; 3; 4.5 and 6 after injection of kaolin. Statistical evaluation was always made in comparison with an untreated control group, and the efficacy of each compound was expressed in percent inhibition of inflammation. Experimental animals: female rats, Wistar strain, Konarovice breed, weighing 130-150 g, experimental groups of 6 animals each. Pelleted diet and drinking water were served ad libitum. This phase of limb edema induced by injection of kaolin suspension represents an acute phase of inflammatory reaction. In addition, orientative tests for oral acute toxicity were carried out with the compounds tested in female mice, S strain, Konarovice breed, weighing 16-20 g. Each compound was administered once by gavage, dosed 1 g/kg, in the form of aqueous suspensions with gum acacia added. Experimental groups of 5 animals each were employed. The deaths were checked for 1 week after administration.

[2] = tested on: kaolin-induced edema of rat hind limb; assay: kaolin-induced edema of rat hind limb (antiinflammatory activity, gavage); assay type: in vivo, rat (Wistar strain, Konarovice breed, female); details: po, 1 h, by gavage, once, one hour before kaolin injection, vs untreated control group, footnotes mark + statistically significant, n not statistically significant
Method: as §1

[3] = oral (gavage), single dose 1 g/kg, deaths checked for 1 week, read-out: LD50 oral mice

Row | SMILES | LD50 at 168 h [1, 3] [mg/kg] | inhibition in vivo at 25 mg/kg [2] [%] | LD50 at 168 h ([1]; po) [mg/kg]
1 | O=C(O)Cc1ccc(OCc2ccc(Cl)cc2)c(Cl)c1 [3-Chloro-4-(4'-chlorobenzyloxy) phenylacetic acid] | > 1000 | 28 | –
2 | O=C(O)Cc1ccc(OCc2ccccc2)c(Cl)c1 [3-Chloro-4-benzyloxyphenylacetic acid, 3-chloro-4-benzyloxyphenylacetic acid] | > 1000 | 39 | –
3 | COc1ccc(COc2ccc(CC(=O)O)cc2Cl)cc1Cl [3-chloro-4-(3'-chloro-4'-methoxybenzyloxy) phenylacetic acid] | > 1000 | 17 | –
4 | CC(C)Oc1ccc(COc2ccc(CC(=O)O)cc2Cl)cc1 [3-chloro-4-(4'-isopropoxybenzyloxy) phenylacetic acid] | < 1000 | – | –
5 | CC(C(=O)O)c1ccc(OCc2ccccc2)c(Cl)c1 (stereo not drawn) [α-(3-Chloro-4-benzyloxyphenyl)-propionic acid, reference compound] | 1000 | 14 | –
6 | COc1ccc(COc2ccc(C(C)C(=O)O)cc2Cl)cc1Cl (stereo not drawn) [α-[3-Chloro-4-(3'-chloro-4'-methoxybenzyloxy)phenyl] propionic acid, reference compound] | < 1000 | – | –
7 | CC(C(=O)O)c1ccc(OCc2ccc(Cl)cc2)c(Cl)c1 (stereo not drawn) [α-[3-Chloro-4-(4'-chlorobenzyloxy)-phenyl] propionic acid, reference compound] | – | 25 | > 1000
8 | CC(C)Oc1ccc(COc2ccc(C(C)C(=O)O)cc2Cl)cc1 (stereo not drawn) [α-[3-Chloro-4-(4'-isopropoxybenzyloxy)phenyl] propionic acid, reference compound] | < 1000 | – | –
